# According to patent US20170232083A1, “METHODS OF DIAGNOSIS AND TREATMENT OF CELIAC DISEASE IN CHILDREN” (priority 2014, published 2017):
# System: PBMC (polyclonal gluten-specific T cells) of paediatric and adult CD patients
# Assay: IFN-γ ELISpot of PBMC after 3 day oral wheat challenge (SFU, % of maximal peptide response, dominance scores, EC50; Examples 5-6)
# Assay type: cell-based, human
# Details: for IFN-γ ELISpot response: after oral wheat challenge
# [1] = patient A, 11-17 yrs, cut-off 10 SFU
# [2] = patient D, max peptide 30.5 SFU
# [3] = patient E, H, 11-17 yrs, cut-off 10 SFU
# [4] = patient F, 11-17 yrs, cut-off 10 SFU
# [5] = patient G, 11-17 yrs, cut-off 10 SFU
# [6] = patient H (HLA-DQ2.5 homozygote), 3-5yrs, cut-off 10 SFU
# [7] = patient H, 11-17 yrs, cut-off 10 SFU
# [8] = patient ID not given, 11-17 yrs, cut-off 10 SFU
# [9] = patient ID not given, max peptide 95 SFU
# [10] = patient N, 3-5yrs, cut-off 10 SFU
# [11] = patient P, 11-17 yrs, cut-off 21.6 SFU
# [12] = patient Q, 11-17 yrs, cut-off 10 SFU
# [13] = patient U, H, 11-17 yrs, cut-off 10 SFU
# [14] = patient V, 6-10 yrs, cut-off 10 SFU
# [15] = patient Y, 6-10 yrs, cut-off 10 SFU
# [16] = patient eleven, 6-10 yrs, cut-off 10 SFU
# [17] = patient eleven, max peptide 57 SFU
# [18] = patient five, max peptide 48 SFU
# [19] = patient four, 3-5yrs, cut-off 10 SFU
# [20] = patient seven, 6-10 yrs, cut-off 10.5 SFU
# [21] = patient ten, 3-5yrs, cut-off 10 SFU
# [22] = patient ten, max peptide 14.5 SFU
# [23] = patient three, 6-10 yrs, cut-off 10.5 SFU
# [24] = patient twelve, 11-17 yrs, cut-off 10 SFU
# [25] = patient two, 3-5yrs, cut-off 10 SFU
# [26] = patient two, max peptide 60 SFU
# [27] = patient four, max peptide 44 SFU
sequence,measurement,setting,value
LQPFPQPELPYPQPQ,IFN-γ ELISpot response,[1],2.5 SFU
same,Significant response as percentage of maximal peptide SFU,[2],+ (>70% = +)
same,IFN-γ ELISpot response,[3],152 SFU
same,Significant response as percentage of maximal peptide SFU,"patient E, max peptide 224 SFU",′′′ (41-70% = ′′′)
same,IFN-γ ELISpot response,[4],166.5 SFU
same,Significant response as percentage of maximal peptide SFU,"patient F, max peptide 178 SFU",+ (>70% = +)
same,IFN-γ ELISpot response,[5],10 SFU
same,Significant response as percentage of maximal peptide SFU,"patient G, max peptide 15 SFU",′′′ (41-70% = ′′′)
same,IFN-γ ELISpot response,[6],31 SFU
same,IFN-γ ELISpot response,[7],8 SFU
same,IFN-γ ELISpot response,[8],66.5 SFU
same,Significant response as percentage of maximal peptide SFU,[9],′′′ (41-70% = ′′′)
same,Significant response as percentage of maximal peptide SFU,"patient J, max peptide 196 SFU",′′′ (41-70% = ′′′)
same,Significant response as percentage of maximal peptide SFU,"patient K, max peptide 53 SFU",′′ (21-40% = ′′)
same,Significant response as percentage of maximal peptide SFU,"patient M, max peptide 48 SFU",′′′ (41-70% = ′′′)
same,IFN-γ ELISpot response,[10],5.5 SFU
same,IFN-γ ELISpot response,[11],41.5 SFU
same,Significant response as percentage of maximal peptide SFU,"patient P, max peptide 64 SFU",′′′ (41-70% = ′′′)
same,IFN-γ ELISpot response,[12],67.5 SFU
same,Significant response as percentage of maximal peptide SFU,"patient Q, max peptide 97 SFU",′′′ (41-70% = ′′′)
same,IFN-γ ELISpot response,[13],45 SFU
same,Significant response as percentage of maximal peptide SFU,"patient U, max peptide 81 SFU",′′′ (41-70% = ′′′)
same,IFN-γ ELISpot response,[14],30 SFU
same,Significant response as percentage of maximal peptide SFU,"patient V, max peptide 35 SFU",+ (>70% = +)
same,IFN-γ ELISpot response,[15],10.5 SFU
same,Significant response as percentage of maximal peptide SFU,"patient Y, max peptide 16 SFU",′′′ (41-70% = ′′′)
same,Significant response as percentage of maximal peptide SFU,"patient Z, max peptide 13 SFU",+ (>70% = +)
same,Significant response as percentage of maximal peptide SFU,"patient eight, max peptide 12 SFU",+ (>70% = +)
same,IFN-γ ELISpot response,[16],57 SFU
same,Significant response as percentage of maximal peptide SFU,[17],+ (>70% = +)
same,Significant response as percentage of maximal peptide SFU,[18],+ (>70% = +)
same,IFN-γ ELISpot response,[19],40.5 SFU
same,Significant response as percentage of maximal peptide SFU,"patient one, max peptide 16.5 SFU",+ (>70% = +)
same,IFN-γ ELISpot response,[20],8 SFU
same,IFN-γ ELISpot response,"patient six, 3-5yrs, cut-off 10 SFU",13 SFU
same,Significant response as percentage of maximal peptide SFU,"patient six, max peptide 13 SFU",+ (>70% = +)
same,IFN-γ ELISpot response,[21],14 SFU
same,Significant response as percentage of maximal peptide SFU,[22],+ (>70% = +)
same,IFN-γ ELISpot response,[23],99.5 SFU
same,IFN-γ ELISpot response,[24],27 SFU
same,IFN-γ ELISpot response,[25],29 SFU
same,Significant response as percentage of maximal peptide SFU,[26],′′′ (41-70% = ′′′)
LQPFPQPELPYSQP,IFN-γ ELISpot response,[1],3 SFU
same,IFN-γ ELISpot response,[3],104 SFU
same,Significant response as percentage of maximal peptide SFU,"patient E, max peptide 224 SFU",′′′ (41-70% = ′′′)
same,IFN-γ ELISpot response,[4],81 SFU
same,Significant response as percentage of maximal peptide SFU,"patient F, max peptide 178 SFU",′′′ (41-70% = ′′′)
same,IFN-γ ELISpot response,[5],5 SFU
same,IFN-γ ELISpot response,[6],36 SFU
same,IFN-γ ELISpot response,[7],15 SFU
same,Significant response as percentage of maximal peptide SFU,"patient H, max peptide 17 SFU",+ (>70% = +)
same,IFN-γ ELISpot response,[8],53 SFU
same,Significant response as percentage of maximal peptide SFU,[9],′′′ (41-70% = ′′′)
same,Significant response as percentage of maximal peptide SFU,"patient II, max peptide 15 SFU",+ (>70% = +)
same,Significant response as percentage of maximal peptide SFU,"patient J, max peptide 196 SFU",′′ (21-40% = ′′)
same,Significant response as percentage of maximal peptide SFU,"patient M, max peptide 48 SFU",+ (>70% = +)
same,IFN-γ ELISpot response,[10],3 SFU
same,IFN-γ ELISpot response,[11],37 SFU
same,Significant response as percentage of maximal peptide SFU,"patient P, max peptide 64 SFU",′′′ (41-70% = ′′′)
same,IFN-γ ELISpot response,[12],29 SFU
same,Significant response as percentage of maximal peptide SFU,"patient Q, max peptide 97 SFU",′′ (21-40% = ′′)
same,IFN-γ ELISpot response,[13],25 SFU
same,Significant response as percentage of maximal peptide SFU,"patient U, max peptide 81 SFU",′′ (21-40% = ′′)
same,IFN-γ ELISpot response,[14],19 SFU
same,Significant response as percentage of maximal peptide SFU,"patient V, max peptide 35 SFU",′′′ (41-70% = ′′′)
same,IFN-γ ELISpot response,[15],12 SFU
same,Significant response as percentage of maximal peptide SFU,"patient Y, max peptide 16 SFU",+ (>70% = +)
same,IFN-γ ELISpot response,[16],39 SFU
same,Significant response as percentage of maximal peptide SFU,[17],′′′ (41-70% = ′′′)
same,Significant response as percentage of maximal peptide SFU,[18],′′′ (41-70% = ′′′)
same,IFN-γ ELISpot response,[19],22 SFU
same,Significant response as percentage of maximal peptide SFU,[27],′′′ (41-70% = ′′′)
same,IFN-γ ELISpot response,[20],6 SFU
same,IFN-γ ELISpot response,[21],11 SFU
same,Significant response as percentage of maximal peptide SFU,[22],+ (>70% = +)
same,IFN-γ ELISpot response,[23],71 SFU
same,IFN-γ ELISpot response,[24],6 SFU
same,IFN-γ ELISpot response,[25],13 SFU
same,Significant response as percentage of maximal peptide SFU,[26],′ (11-20% = ′)
LQPFPQPQLPYPQP,IFN-γ ELISpot response,[1],1 SFU
same,Significant response as percentage of maximal peptide SFU,[2],′′ (21-40% = ′′)
same,IFN-γ ELISpot response,[3],86 SFU
same,Significant response as percentage of maximal peptide SFU,"patient E, max peptide 224 SFU",′′ (21-40% = ′′)
same,IFN-γ ELISpot response,[4],64 SFU
same,Significant response as percentage of maximal peptide SFU,"patient F, max peptide 178 SFU",′′ (21-40% = ′′)
same,IFN-γ ELISpot response,[5],3 SFU
same,IFN-γ ELISpot response,[6],22 SFU
same,IFN-γ ELISpot response,[7],14 SFU
same,Significant response as percentage of maximal peptide SFU,"patient H, max peptide 17 SFU",+ (>70% = +)
same,IFN-γ ELISpot response,[8],51 SFU
same,Significant response as percentage of maximal peptide SFU,[9],′′′ (41-70% = ′′′)
same,Significant response as percentage of maximal peptide SFU,"patient II, max peptide 15 SFU",+ (>70% = +)
same,Significant response as percentage of maximal peptide SFU,"patient J, max peptide 196 SFU",′′′ (41-70% = ′′′)
same,Significant response as percentage of maximal peptide SFU,"patient K, max peptide 53 SFU",′ (11-20% = ′)
same,Significant response as percentage of maximal peptide SFU,"patient M, max peptide 48 SFU",′′′ (41-70% = ′′′)
same,IFN-γ ELISpot response,[10],4 SFU
same,IFN-γ ELISpot response,[11],25 SFU
same,Significant response as percentage of maximal peptide SFU,"patient P, max peptide 64 SFU",′′ (21-40% = ′′)
same,IFN-γ ELISpot response,[12],38 SFU
same,Significant response as percentage of maximal peptide SFU,"patient Q, max peptide 97 SFU",′′ (21-40% = ′′)
same,IFN-γ ELISpot response,[13],35 SFU
same,IFN-γ ELISpot response,[14],10 SFU
same,Significant response as percentage of maximal peptide SFU,"patient V, max peptide 35 SFU",′′ (21-40% = ′′)
same,IFN-γ ELISpot response,[15],14 SFU
same,Significant response as percentage of maximal peptide SFU,"patient Y, max peptide 16 SFU",+ (>70% = +)
same,IFN-γ ELISpot response,[16],29 SFU
same,Significant response as percentage of maximal peptide SFU,[17],′′′ (41-70% = ′′′)
same,Significant response as percentage of maximal peptide SFU,[18],′′′ (41-70% = ′′′)
same,IFN-γ ELISpot response,[19],17 SFU
same,Significant response as percentage of maximal peptide SFU,[27],′′ (21-40% = ′′)
same,IFN-γ ELISpot response,[20],5 SFU
same,IFN-γ ELISpot response,[21],5 SFU
same,IFN-γ ELISpot response,[23],93 SFU
same,IFN-γ ELISpot response,[24],10 SFU
same,IFN-γ ELISpot response,[25],21 SFU
same,Significant response as percentage of maximal peptide SFU,[26],′′ (21-40% = ′′)
